Test results from ChEMBL document CHEMBL1145473, “Efficacy of the de novo-derived antimicrobial peptide WLBU2 against oral bacteria” (2007).
Activity calls are given as the source filed them. No cut-off for these calls is given here.

Legend:
Fusobacterium nucleatum [1] = assay: Antimicrobial activity against Fusobacterium nucleatum biofilms assessed as decrease in viable cell count at 2 uM after 30 mins; assay type: functional, organism-based
Streptococcus gordonii [2] = assay: Antimicrobial activity against Streptococcus gordonii DL1 ATCC 49818 biofilms assessed as decrease in viable cell count at 25 uM after 30 mins; assay type: functional, organism-based
Fusobacterium nucleatum [3] = assay: Antimicrobial activity against Fusobacterium nucleatum planktonic cells at 2 uM after 30 mins; assay type: functional, organism-based
Pseudomonas aeruginosa = assay: Antimicrobial activity against Pseudomonas aeruginosa ATCC 47085 by broth dilution assay; assay type: functional
Fusobacterium nucleatum [4] = assay: Antimicrobial activity against Fusobacterium nucleatum ATCC 49256 by broth dilution assay; assay type: functional
Fusobacterium nucleatum [5] = assay: Antimicrobial activity against Fusobacterium nucleatum ATCC 25586 by broth dilution assay; assay type: functional
Porphyromonas gingivalis = assay: Antimicrobial activity against Porphyromonas gingivalis W83 ATCC BAA0308 by broth dilution assay; assay type: functional
Streptococcus gordonii [6] = assay: Antimicrobial activity against Streptococcus gordonii DL1 ATCC 49818 by broth dilution assay; assay type: functional
Streptococcus gordonii [7] = assay: Antimicrobial activity against Streptococcus gordonii DL1 ATCC 49818 planktonic cells at 25 uM after 30 mins; assay type: functional, organism-based

Row | Molecule | Activity (Fusobacterium nucleatum [1]) | Activity (Streptococcus gordonii [2]) | Activity (Fusobacterium nucleatum [3]) | MBC (Pseudomonas aeruginosa) [µM] | MBC (Fusobacterium nucleatum [4]) [µM] | MBC (Fusobacterium nucleatum [5]) [µM] | MBC (Porphyromonas gingivalis) [µM] | MBC (Streptococcus gordonii [6]) [µM] | Activity (Streptococcus gordonii [7])
1 | CC1(C)S[C@@H]2[C@H](NC(=O)[C@H](N)c3ccc(O)cc3)C(=O)N2[C@H]1C(=O)O | inactive |  |  |  |  |  |  |  | 
2 | Cc1ncc([N+](=O)[O-])n1CCO | inactive |  |  |  |  |  |  |  | 
3 | H-RRWVRRVRRWVRRVVRVVRRWVRR-OH |  | Active | Active | 1 | 1 | 1 | 50 | 12.5 | Active
